Reference: BindingDB's records for doi:10.1021/jm00397a017 (Beijing Medical University, 1988)

What follows are compounds tested against T1, Dihydrofolate reductase (Escherichia coli (strain K12), UniProt P0ABQ4) (assay: ChEBML_54731).
T1 sequence (P0ABQ4 whole entry): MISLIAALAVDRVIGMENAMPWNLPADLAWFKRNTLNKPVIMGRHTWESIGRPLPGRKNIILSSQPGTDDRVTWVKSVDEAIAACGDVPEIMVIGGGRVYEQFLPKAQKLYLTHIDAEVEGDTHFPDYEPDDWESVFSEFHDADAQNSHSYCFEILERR
Description: Apparent inhibitory (log 1/Ki) activity against Escherichia coli dihydrofolate reductase

| SMILES | Ki [nM] |
| --- | --- |
| Cc1cc(C)cc(Cc2cnc(N)nc2N)c1 | 8.9 |
| COCCOc1ccc(Cc2cnc(N)nc2N)cc1OC | 0.562 |
| CCCOc1cc(Cc2cnc(N)nc2N)cc(Br)c1OC | 1.1 |
| Nc1ncc(Cc2ccc(OCc3ccccc3)cc2)c(N)n1 [5-(4-(benzyloxy)benzyl)pyrimidine-2,4-diamine] | 2 |
| COCCOc1cc(Cc2cnc(N)nc2N)ccc1OC | 1.8 |
| COc1ccc(Cc2cnc(N)nc2N)cc1OCc1ccccc1 [5-(3-Benzyloxy-4-methoxy-benzyl)-pyrimidine-2,4-diamine] | 0.0977 |
| Nc1ncc(Cc2cc(OCc3ccccc3)cc(OCc3ccccc3)c2)c(N)n1 | 1.7 |
| CCCCOc1cc(Cc2cnc(N)nc2N)cc(Br)c1OC | 1.1 |
| CCCOc1cc(Cc2cnc(N)nc2N)cc(OCCC)c1 | 1.6 |
| COc1cc(Cc2cnc(N)nc2N)ccc1OCc1ccccc1 [5-(4-(benzyloxy)-3-methoxybenzyl)pyrimidine-2,4-diamine] | 0.372 |
| COc1ccc(Cc2cnc(N)nc2N)cc1OS(C)(=O)=O | 1.1 |
| CCCOc1cc(Cc2cnc(N)nc2N)cc(OCC)c1 | 3.2 |
| COc1cc(Cc2cnc(N)nc2N)ccc1O | 0.891 |
| CCCCOc1ccc(Cc2cnc(N)nc2N)cc1OC | 0.977 |
| CS(=O)(=O)Oc1ccc(Cc2cnc(N)nc2N)cc1 | 7.1 |
| CCOc1cc(Cc2cnc(N)nc2N)cc(OCC)c1 | 0.776 |
